Reference: patent publication US7553864B2, “Compounds for the treatment of inflammatory disorders and microbial diseases” (Schering Corporation, priority 2005, dated 2009)

Test system: LpxC enzyme
Assay: LpxC enzyme assay (RapidFire high-throughput mass spectrometry)
Type: biochemical
Procedure: The standard LpxC assay consists of 0.2 nM LpxC enzyme, 1.0 μM UDP-3-O—(R-3-hydroxymyristoyl)-N-acetylglucosamine, and test compound, in assay buffer and 2% DMSO. Assay buffer is comprised of 25 mM HEPES, pH 7.3, 150 mM NaCl, 2.0 mM DTT, and 0.01% BSA. The enzyme reaction is carried out in a 96-well assay plate, in a final volume of 102 μL. Solutions of test compounds are prepared in 100% DMSO. Reaction additions, in order, are (1) 2.0 μL compound solution, (2) 80 μL of assay buffer, (3) 10 μL of 10 μM UDP-3-O—(R-3-hydroxymyristoyl)-N-acetylglucosamine (in assay buffer) and, (4) 10 μL of LpxC enzyme (20 nM in assay buffer) to initiate the reaction. In positive control reactions, addition (1) has 2.0 μL of 100% DMSO (without compound); these reactions are used as the total signal (TSB) value. Reactions are incubated at room temperature for 60 minutes when 10 μL of 1 N HCl is added to stop the reaction. The plate is shaken by hand for 10 seconds to ensure complete quenching. Assay plates are sealed with foil tape, and stored at −80° C. for 24-48 hr prior to analysis.
The concentrations of substrate and product in the reaction mixtures are determined with BioTrove's proprietary RapidFire™ high-throughput mass spectrometry (HTMS). Assay mixtures are partially purified with reverse phase chromatography, where they are washed with water containing 5 mM ammonium formate and eluted onto the mass spectrometer in 80% acetonitrile, 20% water, and 5 mM ammonium formate. The mass spectrometry peak areas of the substrate and product are measured to determine the concentration of these analytes. The assay signal is the percentage of substrate that is converted to product. Percent inhibition, % I, in test samples is determined from the following equation: […]

[1] = concentration 0.10 (unit not given)
[2] = concentration 0.20 (unit not given)
[3] = concentration 0.39 (unit not given)
[4] = concentration 0.78 (unit not given)
[5] = concentration 1.56 (unit not given)
[6] = concentration 3.13 (unit not given)
[7] = concentration 6.25 (unit not given)
[8] = concentration 12.50 (unit not given)
[9] = concentration 25 (unit not given)
[10] = concentration 50 (unit not given)

Row | Compound | LpxC enzyme assay rating (% inhibition at indicated concentrations) [1] | LpxC enzyme assay rating (% inhibition at indicated concentrations) [2] | LpxC enzyme assay rating (% inhibition at indicated concentrations) [3] | LpxC enzyme assay rating (% inhibition at indicated concentrations) [4] | LpxC enzyme assay rating (% inhibition at indicated concentrations) [5] | LpxC enzyme assay rating (% inhibition at indicated concentrations) [6] | LpxC enzyme assay rating (% inhibition at indicated concentrations) [7] | LpxC enzyme assay rating (% inhibition at indicated concentrations) [8] | LpxC enzyme assay rating (% inhibition at indicated concentrations) [9] | LpxC enzyme assay rating (% inhibition at indicated concentrations) [10]
1 | CN1CCN(c2ccc(NC(=O)[C@H](O)[C@@H](O)C(=O)N3CCCC3)cc2)CC1 [Compound 72] | B (10-30% inhibition) | C (less than 10% inhibition) | C (less than 10% inhibition) | C (less than 10% inhibition) | C (less than 10% inhibition) | C (less than 10% inhibition) | C (less than 10% inhibition) | C (less than 10% inhibition) | C (less than 10% inhibition) | B (10-30% inhibition)
2 | CNC(=O)[C@H](O)[C@@H](O)C(=O)Nc1ccc(OCCN(C)C)cc1 [Compound 39] | C (less than 10% inhibition) | C (less than 10% inhibition) | C (less than 10% inhibition) | B (10-30% inhibition) | C (less than 10% inhibition) | B (10-30% inhibition) | B (10-30% inhibition) | C (less than 10% inhibition) | C (less than 10% inhibition) | B (10-30% inhibition)
3 | CCCc1ccc(NC(=O)[C@H](O)[C@@H](O)C(=O)N2CCCC2)cc1 [Compound 67] | B (10-30% inhibition) | B (10-30% inhibition) | B (10-30% inhibition) | C (less than 10% inhibition) | C (less than 10% inhibition) | C (less than 10% inhibition) | B (10-30% inhibition) | C (less than 10% inhibition) | B (10-30% inhibition) | B (10-30% inhibition)
4 | CNC(=O)[C@H](O)[C@@H](O)C(=O)N1CCN(c2ccc(-c3ccccc3)cc2)CC1 [Compound 30] | C (less than 10% inhibition) | B (10-30% inhibition) | B (10-30% inhibition) | C (less than 10% inhibition) | C (less than 10% inhibition) | B (10-30% inhibition) | B (10-30% inhibition) | B (10-30% inhibition) | B (10-30% inhibition) | A (greater than 30% inhibition)
5 | CCCc1ccc(NC(=O)[C@H](O)[C@@H](O)C(=O)N(C)C)cc1 [Compound 49] | C (less than 10% inhibition) | C (less than 10% inhibition) | B (10-30% inhibition) | C (less than 10% inhibition) | C (less than 10% inhibition) | C (less than 10% inhibition) | C (less than 10% inhibition) | C (less than 10% inhibition) | B (10-30% inhibition) | C (less than 10% inhibition)
6 | C[C@@H](O)[C@H](NC(=O)[C@H](O)[C@@H](O)C(=O)N(C)C)C(=O)Nc1ccc(C#Cc2ccccc2)cc1 [Compound 78] | C (less than 10% inhibition) | C (less than 10% inhibition) | B (10-30% inhibition) | C (less than 10% inhibition) | C (less than 10% inhibition) | B (10-30% inhibition) | B (10-30% inhibition) | B (10-30% inhibition) | A (greater than 30% inhibition) | 
7 | CN(C)C(=O)[C@H](O)[C@@H](O)C(=O)N1CCC(c2ccc3ccccc3c2)CC1 [Compound 52] | C (less than 10% inhibition) | C (less than 10% inhibition) | C (less than 10% inhibition) | C (less than 10% inhibition) | C (less than 10% inhibition) | C (less than 10% inhibition) | B (10-30% inhibition) | B (10-30% inhibition) | B (10-30% inhibition) | A (greater than 30% inhibition)
8 | CNC(=O)[C@H](O)[C@@H](O)C(=O)Nc1ccc(-c2ccc(C(F)(F)F)cc2)cc1 [Compound 28] | C (less than 10% inhibition) | C (less than 10% inhibition) | C (less than 10% inhibition) | C (less than 10% inhibition) | C (less than 10% inhibition) | C (less than 10% inhibition) | C (less than 10% inhibition) | B (10-30% inhibition) | C (less than 10% inhibition) | C (less than 10% inhibition)
9 | CCC(C)c1ccc(NC(=O)[C@H](O)[C@@H](O)C(=O)NC)cc1 (stereo partly drawn) [Compound 34] | C (less than 10% inhibition) | B (10-30% inhibition) | C (less than 10% inhibition) | B (10-30% inhibition) | B (10-30% inhibition) | C (less than 10% inhibition) | B (10-30% inhibition) | C (less than 10% inhibition) | B (10-30% inhibition) | B (10-30% inhibition)
10 | CN(C)C(=O)[C@H](O)[C@@H](O)C(=O)Nc1ccc(-c2ccc(C(F)(F)F)cc2)cc1 [Compound 46] | C (less than 10% inhibition) | C (less than 10% inhibition) | C (less than 10% inhibition) | C (less than 10% inhibition) | C (less than 10% inhibition) | C (less than 10% inhibition) | C (less than 10% inhibition) | B (10-30% inhibition) | B (10-30% inhibition) | A (greater than 30% inhibition)
